Assay results as given in US20060135551A1, “Novel heterocyclic compounds and their pharmaceutical compositions” (priority 2004, published 2006).

Target: T1, Recombinant CETP enzyme (Homo sapiens, UniProt P11597)
T1 construct: purchased Cardiovascular Targets
T1 sequence (P11597 18-493): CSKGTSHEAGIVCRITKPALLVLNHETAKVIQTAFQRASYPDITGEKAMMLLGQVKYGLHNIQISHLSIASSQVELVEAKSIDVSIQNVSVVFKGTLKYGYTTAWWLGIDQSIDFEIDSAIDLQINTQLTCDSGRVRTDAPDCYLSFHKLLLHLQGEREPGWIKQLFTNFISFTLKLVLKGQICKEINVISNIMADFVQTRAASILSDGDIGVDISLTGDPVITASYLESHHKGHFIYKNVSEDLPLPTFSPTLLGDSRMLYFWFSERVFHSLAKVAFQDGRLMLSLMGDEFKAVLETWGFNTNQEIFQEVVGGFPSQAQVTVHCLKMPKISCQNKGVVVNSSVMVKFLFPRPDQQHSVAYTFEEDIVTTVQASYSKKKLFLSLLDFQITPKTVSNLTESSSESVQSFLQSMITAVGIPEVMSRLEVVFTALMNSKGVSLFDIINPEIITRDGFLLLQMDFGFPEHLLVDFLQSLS
Assay: In vitro fluorescence-based CETP inhibition assay (BODIPY-CE transfer from donor to acceptor microemulsions)
Assay type: biochemical
Conditions: recombinant CETP 0.14 ng/μl; transfer of fluorescent cholesteryl ester monitored over 2 hours; compared to DMSO controls
Procedure: An in vitro fluorescence-based assay to identify CETP inhibitors was developed from modifications of the protocols outlined in Bisgaier et al., J Lipid Res., 34(9): 1625-34 (1993) and Epps et al., Chem Phys Lipids., 77(1): 51-63 (1995). Acceptor and donor lipid microemulsions were prepared according to Bisgaier et al., 1993, except that the buffer was prepared with 0.67 ug/ml human HDL (Calbiochem). Donor microemulsions contained the fluorescent cholesteryl ester analog BODIPY-CE (Molecular Probes), characterized by excitation and emission maxima at 503 nm and 518 nm, respectively. The CETP-mediated transfer of fluorescent cholesteryl ester to acceptor particles was monitored over a 2-hour time period using the FAM filter set (excitation 492 nm, emission 516 nm) in an MX3000P fluorescent plate reader (Stratagene). Recombinant CETP enzyme (Cardiovascular Targets) was used at 0.14 ng/μl, final concentration, to achieve lipid transfer. CETP inhibition by compounds was compared to DMSO controls and graphed as a percentage of the control CETP activity over 2 hours. The IC50 curves for CETP inhibition were generated from the activity profiles. Active compounds were also tested for CETP inhibition as above, but in the presence of 3% human serum albumin, fraction V (Calbiochem).
Using this protocol, IC50 data for CETP inhibition were obtained.

Compound `CCOC(=O)N1c2c(c(C)nn2C)C(N(Cc2cc(C(F)(F)F)cc(C(F)(F)F)c2)C(=O)OC)CC1CC` (stereo not shown) [Example E1, 4-[(3,5-Bis-trifluoromethyl-benzyl)-methoxycarbonyl-amino]-6-ethyl-1,3-dimethyl-1,4,5,6-tetrahydro-pyrazolo[3,4-b]pyridine-7-carboxylic acid ethyl ester] has an IC50 of 4.6 µM.
